Tests used:
Format in all cases: in vivo
[1] = test system: canarygrass (Phalaris minor); assay: Test C postemergence: canarygrass
Method in brief: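 Visual 0–100 injury score vs untreated controls (0 none, 100 complete control), taken 13–15 d after treatment. Postemergence spray on potted plants, 2–18 cm, 1–4 leaves; greenhouse.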

[2] = test system: chamomile (scentless chamomile, Matricaria inodora); assay: Test D pre-/postemergence: chamomile
Method in brief: (§1)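 Pre- and postemergence herbicide screen. Soil for pre: silt loam; post medium: peat moss, vermiculite, wetting agent, starter nutrients. Plant stage at post: 1- to 4-leaf. Readout: visual % control, 14–21 days.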

[3] = test system: goosegrass (Eleusine indica); assay: Test C pre-/postemergence: goosegrass
Method in brief: (§2)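 Preemergence on seeds in loam/sand, postemergence on 2–18 cm (1–4-leaf) plants in peat-based medium; compounds in non-phytotoxic solvent with surfactant. After 13–15 days in greenhouse, visual rating versus controls, 0 (no effect) to 100 (complete control).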

[4] = test system: Russian thistle (Salsola kali); assay: Test C pre-/postemergence: Russian thistle; details: Preemergence
Method in brief: as §2

[5] = test system: cocklebur (common cocklebur, Xanthium strumarium); assay: Test C pre-/postemergence: cocklebur
Method in brief: as §2

[6] = test system: wheat, winter (winter wheat, Triticum aestivum); assay: Test D pre-/postemergence: wheat, winter
Method in brief: as §1

[7] = test system: mustard, wild (wild mustard, Sinapis arvensis); assay: Test D pre-/postemergence: mustard, wild
Method in brief: as §1

[8] = test system: nightshade (eastern black nightshade, Solanum ptycanthum); assay: Test C pre-/postemergence: nightshade; details: Preemergence
Method in brief: as §2

[9] = 125 g ai/ha, scale 0 to 100, 0 no effect, 100 complete control
[10] = Postemergence, 31 g ai/ha, scale 0 to 100 (0 no effect, 100 complete control)
[11] = Postemergence, 62 g ai/ha, scale 0 to 100 (0 no effect, 100 complete control)
[12] = Postemergence, 125 g ai/ha, scale 0 to 100, 0 no effect, 100 complete control
[13] = Postemergence, 250 g ai/ha, scale 0 to 100 (0 no effect, 100 complete control)
[14] = Postemergence, 16 g ai/ha, scale 0 to 100
[15] = Preemergence, 16 g ai/ha, scale 0 to 100 (0 no effect, 100 complete control)
[16] = Preemergence, 31 g ai/ha, scale 0 to 100 (0 no effect, 100 complete control)
[17] = Preemergence, 62 g ai/ha, scale 0 to 100
[18] = Preemergence, 125 g ai/ha, scale 0 to 100
[19] = Preemergence, 250 g ai/ha, scale 0 to 100
[20] = Preemergence, 125 g ai/ha, scale 0 to 100, 0 no effect, 100 complete control
[21] = 31 g ai/ha, scale 0 (no effect) to 100 (complete control)
[22] = 62 g ai/ha, scale of 0 to 100, 0 is no effect, 100 is complete control
[23] = 250 g ai/ha, scale 0 to 100, 0 no effect, 100 complete control

With `CCOc1nn(-c2ccc(F)cc2)nc1Cc1ccnc(C(F)F)c1` [Compound 195] as the compound, how does the “Plant response rating, Canarygrass” value ([1]; 31 g ai/ha, scale 0 to 100 (0 no effect, 100 complete control)) read?
The value was 40.

And the “Plant response rating, Canarygrass” value ([1]; 62 g ai/ha, scale 0 to 100 (0 no effect, 100 complete control))?
The value was 60.

What about the “Plant response rating, Canarygrass” value [1, 9] of the same compound?
Its value is 85.

And the “Plant response rating, Canarygrass” value ([1]; 250 g ai/ha, scale 0 to 100)?
Its value is 100.

What about the “Plant response rating: Chamomile” value [2, 10] of the same compound?
The value was 20.

What about the “Plant response rating: Chamomile” value [2, 11] of the same compound?
The value was 20.

What about the “Plant response rating: Chamomile” value [2, 12] of the same compound?
Its value is 20.

What about the “Plant response rating: Chamomile” value [2, 13] of the same compound?
Its value is 50.

And the “Plant response rating, Chamomile” value [2, 14]?
Its value is 20.

What about the “Plant response rating, Chamomile” value [2, 15] of the same compound?
The value was 0.

What about the “Plant response rating, Chamomile” value [2, 16] of the same compound?
Its value is 0.

What about the “Plant response rating, Chamomile” value [2, 17] of the same compound?
Its value is 100.

What about the “Plant response rating, Chamomile” value [2, 18] of the same compound?
The value was 100.

And the “Plant response rating, Chamomile” value [2, 19]?
The value was 100.

What about the “Plant response rating, Goosegrass” value [3, 10] of the same compound?
Its value is 50.

And the “Plant response rating, Goosegrass” value [3, 11]?
Its value is 50.

What about the “Plant response rating, Goosegrass” value [3, 12] of the same compound?
The value was 60.

What about the “Plant response rating, Goosegrass” value [3, 13] of the same compound?
Its value is 80.

And the “Plant response rating, Goosegrass” value ([3]; Preemergence, 31 g ai/ha, scale 0 (no effect) to 100 (complete control))?
Its value is 98.

And the “Plant response rating, Goosegrass” value ([3]; Preemergence, 62 g ai/ha, scale of 0 to 100, 0 is no effect, 100 is complete control)?
The value was 100.

What about the “Plant response rating, Goosegrass” value [3, 20] of the same compound?
The value was 100.

And the “Plant response rating, Goosegrass” value ([3]; Preemergence, 250 g ai/ha, scale 0 to 100, 0 no effect, 100 complete control)?
Its value is 100.

What about the “Plant response rating, Russian Thistle” value [4, 21] of the same compound?
Its value is 90.

What about the “Plant response rating, Russian Thistle” value [4, 22] of the same compound?
The value was 90.

What about the “Plant response rating, Russian Thistle” value [4, 9] of the same compound?
The value was 90.

What about the “Plant response rating, Russian Thistle” value [4, 23] of the same compound?
The value was 90.

What about the “Plant response rating, Cocklebur” value ([5]; Postemergence, 250 g ai/ha, scale 0 to 100) of the same compound?
The value was 50.

And the “Plant response rating, Cocklebur” value [5, 20]?
Its value is 0.

And the “Plant response rating: Wheat, Winter” value [6, 10]?
Its value is 10.

What about the “Plant response rating: Wheat, Winter” value [6, 11] of the same compound?
The value was 10.

What about the “Plant response rating: Wheat, Winter” value [6, 12] of the same compound?
The value was 25.

What about the “Plant response rating: Wheat, Winter” value [6, 13] of the same compound?
The value was 40.

What about the “Plant response rating, Wheat, Winter” value [6, 14] of the same compound?
Its value is 5.

And the “Plant response rating, Wheat, Winter” value [6, 15]?
Its value is 0.

And the “Plant response rating, Wheat, Winter” value [6, 16]?
The value was 0.

What about the “Plant response rating, Wheat, Winter” value [6, 17] of the same compound?
Its value is 0.

And the “Plant response rating, Wheat, Winter” value [6, 18]?
Its value is 0.

What about the “Plant response rating, Wheat, Winter” value [6, 19] of the same compound?
The value was 10.

And the “Plant response rating: Mustard, Wild” value [7, 10]?
Its value is 80.

And the “Plant response rating: Mustard, Wild” value [7, 11]?
Its value is 80.

What about the “Plant response rating: Mustard, Wild” value [7, 12] of the same compound?
Its value is 95.

What about the “Plant response rating: Mustard, Wild” value [7, 13] of the same compound?
The value was 100.

What about the “Plant response rating, Mustard, Wild” value [7, 14] of the same compound?
Its value is 60.

And the “Plant response rating, Mustard, Wild” value [7, 15]?
The value was 0.

And the “Plant response rating, Mustard, Wild” value [7, 16]?
Its value is 10.

And the “Plant response rating, Mustard, Wild” value [7, 17]?
The value was 40.

And the “Plant response rating, Mustard, Wild” value [7, 18]?
Its value is 100.

And the “Plant response rating, Mustard, Wild” value [7, 19]?
The value was 100.

What about the “Plant response rating, Nightshade” value [8, 21] of the same compound?
Its value is 60.

And the “Plant response rating, Nightshade” value [8, 22]?
The value was 85.

And the “Plant response rating, Nightshade” value [8, 9]?
Its value is 95.

And the “Plant response rating, Nightshade” value [8, 23]?
The value was 98.
